Reference: patent US20260130395A1, “Water Dispersible Botanical Compositions” (Aquila Black Limited, priority 2021, published 2026)

Test: Stability of cannabinoid compounds and Vitamin E components in Beverage 2 (AB Red) by LCMSMS
Type: physicochemical

CC(=O)Oc1c(C)c(C)c2c(c1C)CCC(C)(CCC[C@H](C)CCC[C@H](C)CCCC(C)C)O2 (stereo partly drawn) [α-Tocopheryl acetate]
Stability of Vitamin Es in AB Red (stored at 8° C., 0 days): 12.5 µg/mL
Stability of Vitamin Es in AB Red (stored at 8° C., 1 days): 11.6 µg/mL
Stability of Vitamin Es in AB Red (stored at 8° C., 2 days): 11.5 µg/mL
Stability of Vitamin Es in AB Red (stored at 8° C., 3 days): 11.6 µg/mL
Stability of Vitamin Es in AB Red (stored at 8° C., 5 days): 12.3 µg/mL
Stability of Vitamin Es in AB Red (stored at 8° C., 8 days): 12.2 µg/mL
Stability of Vitamin Es in AB Red (stored at 8° C., 9 days): 12.1 µg/mL
Stability of Vitamin Es in AB Red (stored at 8° C., 10 days): 12.6 µg/mL
Stability of Vitamin Es in AB Red (stored at 8° C., 11 days): 11.9 µg/mL
Stability of Vitamin Es in AB Red (stored at 8° C., 12 days): 12.4 µg/mL
Stability of Vitamin Es in AB Red (stored at 8° C., 15 days): 12.0 µg/mL
Stability of Vitamin Es in AB Red (stored at 8° C., 16 days): 11.5 µg/mL
Stability of Vitamin Es in AB Red (stored at 8° C., 17 days): 11.8 µg/mL
Stability of Vitamin Es in AB Red (stored at 8° C., 18 days): 12.5 µg/mL
Stability of Vitamin Es in AB Red (stored at 8° C., 19 days): 12.5 µg/mL
Stability of Vitamin Es in AB Red (stored at 8° C., 22 days): 12.5 µg/mL
Stability of Vitamin Es in AB Red (stored at 8° C., 23 days): 11.9 µg/mL
Stability of Vitamin Es in AB Red (stored at 8° C., 24 days): 12.6 µg/mL
Stability of Vitamin Es in AB Red (stored at 8° C., 25 days): 12.3 µg/mL
Stability of Vitamin Es in AB Red (stored at 8° C., 26 days): 11.6 µg/mL
Stability of Vitamin Es in AB Red (stored at 8° C., 29 days): 11.7 µg/mL
Stability of Vitamin Es in AB Red (stored at 8° C., 30 days): 12.1 µg/mL
Stability of Vitamin Es in AB Red (stored at 8° C., 60 days): 11.4 µg/mL
Stability of Vitamin Es in AB Red (stored at 8° C., 90 days): 11.6 µg/mL
Stability of Vitamin Es in AB Red (stored at 8° C., 120 days): 11.7 µg/mL
Stability of Vitamin Es in AB Red (stored at 8° C., 150 days): 12.3 µg/mL
Stability of Vitamin Es in AB Red (stored at 8° C., 180 days): 12.6 µg/mL
Stability of Vitamin Es in AB Red (stored at 8° C., 210 days): 11.8 µg/mL
Stability of Vitamin Es in AB Red (stored at 8° C., 240 days): 11.2 µg/mL
Stability of Vitamin Es in AB Red (stored at 8° C., 270 days): 11.6 µg/mL
Stability of Vitamin Es in AB Red (stored at 8° C., 300 days): 11.2 µg/mL
Stability of Vitamin Es in AB Red (stored at 8° C., 330 days): 11.3 µg/mL
Stability of Vitamin Es in AB Red (stored at 8° C., 360 days): 11.3 µg/mL
Stability of Vitamin Es in AB Red (stored at 8° C., 390 days): 11.4 µg/mL
Stability of Vitamin Es in AB Red (stored at 8° C., 420 days): 11.2 µg/mL
Stability of Vitamin Es in AB Red (stored at 8° C., 450 days): 11.4 µg/mL
Stability of Vitamin Es in AB Red (stored at 8° C., 480 days): 10.7 µg/mL
Stability of Vitamin Es in AB Red (stored at 8° C., 510 days): 10.6 µg/mL
Stability of Vitamin Es in AB Red (stored at 8° C., 540 days): 10.8 µg/mL
Stability of Vitamin Es in AB Red (stored at 8° C., 570 days): 10.8 µg/mL
Stability of Vitamin Es in AB Red (stored at 21-25° C., 0 days): 12.5 µg/mL
Stability of Vitamin Es in AB Red (stored at 21-25° C., 1 days): 12.1 µg/mL
Stability of Vitamin Es in AB Red (stored at 21-25° C., 2 days): 12.5 µg/mL
Stability of Vitamin Es in AB Red (stored at 21-25° C., 3 days): 11.7 µg/mL
Stability of Vitamin Es in AB Red (stored at 21-25° C., 5 days): 12.2 µg/mL
Stability of Vitamin Es in AB Red (stored at 21-25° C., 8 days): 11.4 µg/mL
Stability of Vitamin Es in AB Red (stored at 21-25° C., 9 days): 11.6 µg/mL
Stability of Vitamin Es in AB Red (stored at 21-25° C., 10 days): 12.5 µg/mL
Stability of Vitamin Es in AB Red (stored at 21-25° C., 11 days): 12.3 µg/mL
Stability of Vitamin Es in AB Red (stored at 21-25° C., 12 days): 12.3 µg/mL
Stability of Vitamin Es in AB Red (stored at 21-25° C., 15 days): 12.1 µg/mL
Stability of Vitamin Es in AB Red (stored at 21-25° C., 16 days): 12.1 µg/mL
Stability of Vitamin Es in AB Red (stored at 21-25° C., 17 days): 11.3 µg/mL
Stability of Vitamin Es in AB Red (stored at 21-25° C., 18 days): 12.0 µg/mL
Stability of Vitamin Es in AB Red (stored at 21-25° C., 19 days): 12.0 µg/mL
Stability of Vitamin Es in AB Red (stored at 21-25° C., 22 days): 12.1 µg/mL
Stability of Vitamin Es in AB Red (stored at 21-25° C., 23 days): 11.7 µg/mL
Stability of Vitamin Es in AB Red (stored at 21-25° C., 24 days): 11.5 µg/mL
Stability of Vitamin Es in AB Red (stored at 21-25° C., 25 days): 12.4 µg/mL
Stability of Vitamin Es in AB Red (stored at 21-25° C., 26 days): 12.0 µg/mL
Stability of Vitamin Es in AB Red (stored at 21-25° C., 29 days): 11.9 µg/mL
Stability of Vitamin Es in AB Red (stored at 21-25° C., 30 days): 12.6 µg/mL
Stability of Vitamin Es in AB Red (stored at 21-25° C., 60 days): 11.6 µg/mL
Stability of Vitamin Es in AB Red (stored at 21-25° C., 90 days): 12.3 µg/mL
Stability of Vitamin Es in AB Red (stored at 21-25° C., 120 days): 12.3 µg/mL
Stability of Vitamin Es in AB Red (stored at 21-25° C., 150 days): 11.4 µg/mL
Stability of Vitamin Es in AB Red (stored at 21-25° C., 180 days): 12.0 µg/mL
Stability of Vitamin Es in AB Red (stored at 21-25° C., 210 days): 11.6 µg/mL
Stability of Vitamin Es in AB Red (stored at 21-25° C., 240 days): 11.3 µg/mL
Stability of Vitamin Es in AB Red (stored at 21-25° C., 270 days): 11.4 µg/mL
Stability of Vitamin Es in AB Red (stored at 21-25° C., 300 days): 11.2 µg/mL
Stability of Vitamin Es in AB Red (stored at 21-25° C., 330 days): 11.6 µg/mL
Stability of Vitamin Es in AB Red (stored at 21-25° C., 360 days): 11.1 µg/mL
Stability of Vitamin Es in AB Red (stored at 21-25° C., 390 days): 11.3 µg/mL
Stability of Vitamin Es in AB Red (stored at 21-25° C., 420 days): 11.3 µg/mL
Stability of Vitamin Es in AB Red (stored at 21-25° C., 450 days): 11.2 µg/mL
Stability of Vitamin Es in AB Red (stored at 21-25° C., 480 days): 10.4 µg/mL
Stability of Vitamin Es in AB Red (stored at 21-25° C., 510 days): 10.4 µg/mL
Stability of Vitamin Es in AB Red (stored at 21-25° C., 540 days): 10.6 µg/mL
Stability of Vitamin Es in AB Red (stored at 21-25° C., 570 days): 10.6 µg/mL
